Test results taken from ChEMBL document CHEMBL5036305, “Modulation of the Passive Permeability of Semipeptidic Macrocycles: N- and C-Methylations Fine-Tune Conformation and Properties” (J Med Chem, 2021).

Assay: Apparent permeability across apical to basolateral side in human Caco-2 cells measured after 60 to 120 mins
Assay type: ADME, cell-based
Details: time 60-120 min

permeability: Permeable
Structure (SMILES): CC(C)CN1CC(=O)N[C@@H](Cc2ccccc2)C(=O)NCCC[C@@H](C)C(=O)N[C@@H](C)C1=O
